Test results as given in US20230114728A1 (Venatorx Pharmaceuticals, Inc., priority 2019, published 2023).
In brackets after ≈: the same amount, converted by molar mass.

How the values were obtained:
[1] = molecular target: T1, E. coli K12 PBP3 (Escherichia coli, UniProt P0AD68); experiment: biochemical; assay type: binding
T1 construct: made in house
In short: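 A. baumannii PBP2 (2.5 μM) and PBP3 (0.2 μM) were run in 25 mM Tris pH 8.0 buffer with Tween 20; E. coli PBP3 (1.5 μM) and N. gonorrhoeae PBP2 ([…]) in 50 mM Hepes pH 8.0 buffer.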

[2] = system: N. gonorrhoeae H041; experiment: Liquid broth MIC in Fastidious broth; assay type: cell-based; details: Neisseria gonorrhoeae, H041, read-out: Minimum Inhibitory Concentration, N. gonorrhoeae H041
In short: (§1)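 Mosaic-PBP2 strains grown 24 h on chocolate agar (36 °C, 5% CO2), then direct-suspended in saline and OD600-adjusted. Twofold compound dilutions in Fastidious broth inoculated at 5×10^5 CFU/mL and incubated ~24 h at 36 °C, 5% CO2. MIC read visually as lowest concentration with <10% growth versus full-growth wells.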

[3] = system: N. gonorrhoeae ATCC 49226; experiment: Liquid broth MIC in Fastidious broth; assay type: cell-based; details: Neisseria gonorrhoeae, ATCC49226; N. gonorrhoeae strain ATCC 49226; Fastidious broth; read-out: Minimum Inhibitory Concentration, N. gonorrhoeae ATCC 49226
In short: (§2)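 Colonies were swabbed from chocolate agar after 24 h growth and standardised by optical density at 600 nm. Compounds were serially diluted twofold in Fastidious broth, and bacteria added to give 5×10^5 CFU/mL. After about 24 h at 36 °C in 5% CO2, the lowest concentration allowing under 10% growth was taken as MIC.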

[4] = system: N. gonorrhoeae WHO L; experiment: Liquid broth MIC in Fastidious broth; assay type: cell-based; details: Neisseria gonorrhoeae; N. gonorrhoeae strain WHO L; Fastidious broth; read-out: Minimum Inhibitory Concentration, N. gonorrhoeae WHO L
In short: as §2

[5] = system: N. gonorrhoeae WHO G; experiment: Liquid broth MIC in Fastidious broth; assay type: cell-based; details: Neisseria gonorrhoeae; N. gonorrhoeae strain WHO G; Fastidious broth; read-out: Minimum Inhibitory Concentration, N. gonorrhoeae WHO G
In short: as §2

[6] = system: N. gonorrhoeae FA1090; experiment: Liquid broth MIC in Fastidious broth; assay type: cell-based; details: Neisseria gonorrhoeae; N. gonorrhoeae strain FA1090; Fastidious broth; read-out: Minimum Inhibitory Concentration, N. gonorrhoeae FA1090
In short: as §2

[7] = system: N. gonorrhoeae WHO K; experiment: Liquid broth MIC in Fastidious broth; assay type: cell-based; details: Neisseria gonorrhoeae, read-out: Minimum Inhibitory Concentration, N. gonorrhoeae WHO K
In short: as §1

T1 sequence (P0AD68 1-577): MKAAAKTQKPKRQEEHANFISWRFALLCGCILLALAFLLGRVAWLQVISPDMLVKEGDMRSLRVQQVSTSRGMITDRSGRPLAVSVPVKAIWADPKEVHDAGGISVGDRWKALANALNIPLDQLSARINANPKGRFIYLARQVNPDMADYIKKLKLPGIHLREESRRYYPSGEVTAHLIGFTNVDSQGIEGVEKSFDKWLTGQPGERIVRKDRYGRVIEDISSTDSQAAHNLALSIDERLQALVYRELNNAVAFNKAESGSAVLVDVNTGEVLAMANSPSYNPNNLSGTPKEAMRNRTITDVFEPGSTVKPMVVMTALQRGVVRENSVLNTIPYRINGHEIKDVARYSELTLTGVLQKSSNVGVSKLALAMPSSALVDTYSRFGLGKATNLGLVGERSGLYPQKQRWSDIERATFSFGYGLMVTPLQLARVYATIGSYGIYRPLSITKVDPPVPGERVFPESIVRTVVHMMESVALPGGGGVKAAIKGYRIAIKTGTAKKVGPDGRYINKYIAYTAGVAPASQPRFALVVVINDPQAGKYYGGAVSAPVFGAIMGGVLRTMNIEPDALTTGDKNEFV

Row | SMILES | EC50 [1] [µM] | MIC [2] [µg/mL] | MIC [3] [µg/mL] | MIC [4] [µg/mL] | MIC [5] [µg/mL] | MIC [6] [µg/mL] | MIC [7] [µg/mL]
1 | NC(=O)c1ccc(C(NC(=O)N2CCN(CCF)C(=O)C2=O)C(=O)N[C@H]2Cc3cccc(C(=O)O)c3OB2O)cc1O (stereo partly drawn) [Example 46, (3R)-3-(2-(4-carbamoyl-3-hydroxyphenyl)-2-(4-(2-fluoroethyl)-2,3-dioxopiperazine-1-carboxamido)acetamido)-2-hydroxy-3,4-dihydro-2H-benzo[e][1,2]oxaborinine-8-carboxylic acid] | < 30 | 16 to 32 (≈ 27.3 to 54.7 µM) | 1 to 2 (≈ 1.71 to 3.42 µM) | 16 to 32 (≈ 27.3 to 54.7 µM) | 0.25 to 0.5 (≈ 0.427 to 0.854 µM) | < 0.125 | 16 to 32 (≈ 27.3 to 54.7 µM)
2 | NCCCN1CCN(C(=O)NC(C(=O)N[C@H]2Cc3cccc(C(=O)O)c3OB2O)c2ccc(C(N)=O)c(O)c2)C(=O)C1=O (stereo partly drawn) [Example 47, (3R)-3-(2-(4-(3-aminopropyl)-2,3-dioxopiperazine-1-carboxamido)-2-(4-carbamoyl-3-hydroxyphenyl)acetamido)-2-hydroxy-3,4-dihydro-2H-benzo[e][1,2]oxaborinine-8-carboxylic acid] | 30 to 500 | > 64 | 4 to 8 (≈ 6.71 to 13.4 µM) | > 64 | 4 to 8 (≈ 6.71 to 13.4 µM) | 0.25 to 0.5 (≈ 0.419 to 0.838 µM) | > 64
3 | CCN1CCN(C(=O)NC(C(=O)N[C@H]2Cc3cccc(C(=O)O)c3OB2O)c2ccc(C(=O)O)c(OC)c2)C(=O)C1=O (stereo partly drawn) [Example 48, (3R)-3-(2-(4-carboxy-3-methoxyphenyl)-2-(4-ethyl-2,3-dioxopiperazine-1-carboxamido)acetamido)-2-hydroxy-3,4-dihydro-2H-benzo[e][1,2]oxaborinine-8-carboxylic acid] | < 30 | 16 to 32 (≈ 27.5 to 55 µM) | 4 to 8 (≈ 6.87 to 13.7 µM) | 16 to 32 (≈ 27.5 to 55 µM) | 1 to 2 (≈ 1.72 to 3.43 µM) | 0.25 to 0.5 (≈ 0.429 to 0.859 µM) | 4 to 8 (≈ 6.87 to 13.7 µM)
4 | O=C(Nc1ccccc1)NC(C(=O)N[C@H]1Cc2ccc(F)c(C(=O)O)c2OB1O)c1ncc(O)cc1F (stereo partly drawn) [Example 49, (3R)-7-fluoro-3-(2-(3-fluoro-5-hydroxypyridin-2-yl)-2-(3-phenylureido)acetamido)-2-hydroxy-3,4-dihydro-2H-benzo[e][1,2]oxaborinine-8-carboxylic acid] | 30 to 500 | > 64 | 16 to 32 (≈ 31.2 to 62.5 µM) | 16 to 32 (≈ 31.2 to 62.5 µM) | 16 to 32 (≈ 31.2 to 62.5 µM) | 4 to 8 (≈ 7.81 to 15.6 µM) | > 64
5 | CCN1CCN(C(=O)NC(C(=O)N[C@H]2Cc3cccc(C(=O)O)c3OB2O)c2ccc(N)c(F)c2)C(=O)C1=O (stereo partly drawn) [Example 50, (3R)-3-(2-(4-amino-3-fluorophenyl)-2-(4-ethyl-2,3-dioxopiperazine-1-carboxamido)acetamido)-2-hydroxy-3,4-dihydro-2H-benzo[e][1,2]oxaborinine-8-carboxylic acid] | < 30 | 16 to 32 (≈ 29.6 to 59.1 µM) | 1 to 2 (≈ 1.85 to 3.69 µM) | 16 to 32 (≈ 29.6 to 59.1 µM) | 1 to 2 (≈ 1.85 to 3.69 µM) | < 0.125 | 16 to 32 (≈ 29.6 to 59.1 µM)
6 | N=C(N)NCCN1CCN(C(=O)NC(C(=O)N[C@H]2Cc3ccc(F)c(C(=O)O)c3OB2O)c2ncc(O)cc2F)C(=O)C1=O (stereo partly drawn) [Example 51, (3R)-7-fluoro-3-(2-(3-fluoro-5-hydroxypyridin-2-yl)-2-(4-(2-guanidinoethyl)-2,3-dioxopiperazine-1-carboxamido)acetamido)-2-hydroxy-3,4-dihydro-2H-benzo[e][1,2]oxaborinine-8-carboxylic acid] | 30 to 500 | > 64 | 4 to 8 (≈ 6.47 to 12.9 µM) | > 64 | 4 to 8 (≈ 6.47 to 12.9 µM) | 4 to 8 (≈ 6.47 to 12.9 µM) | > 64
7 | N=C(N)NC(C(=O)N[C@H]1Cc2ccc(F)c(C(=O)O)c2OB1O)c1ncc(O)cc1F (stereo partly drawn) [Example 52, (3R)-7-fluoro-3-(2-(3-fluoro-5-hydroxypyridin-2-yl)-2-guanidinoacetamido)-2-hydroxy-3,4-dihydro-2H-benzo[e][1,2]oxaborinine-8-carboxylic acid] | > 500 | > 64 | > 64 | > 64 | > 64 | > 64 | > 64
8 | O=C(NC(C(=O)N[C@H]1Cc2ccc(F)c(C(=O)O)c2OB1O)c1ncc(O)cc1F)c1ccnc(F)c1 (stereo partly drawn) [Example 53, (3R)-7-fluoro-3-(2-(3-fluoro-5-hydroxypyridin-2-yl)-2-(2-fluoroisonicotinamido)acetamido)-2-hydroxy-3,4-dihydro-2H-benzo[e][1,2]oxaborinine-8-carboxylic acid] | 30 to 500 | > 64 | > 64 | > 64 | > 64 | 4 to 8 (≈ 7.75 to 15.5 µM) | > 64
9 | CCN1CCN(C(=O)NC(C(=O)N[C@H]2Cc3ccc(C=O)c(C(=O)O)c3OB2O)c2csc(N)n2)C(=O)C1=O (stereo partly drawn) [Example 57, (3R)-3-(2-(2-aminothiazol-4-yl)-2-(4-ethyl-2,3-dioxopiperazine-1-carboxamido)acetamido)-7-formyl-2-hydroxy-3,4-dihydro-2H-benzo[e][1,2]oxaborinine-8-carboxylic acid] | 30 to 500 | > 64 | 16 to 32 (≈ 28.7 to 57.3 µM) | > 64 | 16 to 32 (≈ 28.7 to 57.3 µM) | 4 to 8 (≈ 7.16 to 14.3 µM) | > 64
10 | CCN1CCN(C(=O)NC(C(=O)N[C@H]2Cc3ccc(CO)c(C(=O)O)c3OB2O)c2csc(N)n2)C(O)C1=O (stereo partly drawn) [Example 58, (3R)-3-(2-(2-aminothiazol-4-yl)-2-(4-ethyl-2-hydroxy-3-oxopiperazine-1-carboxamido)acetamido)-2-hydroxy-7-(hydroxymethyl)-3,4-dihydro-2H-benzo[el][1,2]oxaborinine-8-carboxylic acid] | 30 to 500 | > 64 | > 64 | > 64 | > 64 | > 64 | > 64
11 | CCN1CCN(C(=O)NC(C(=O)N[C@H]2Cc3ccc(O[C@@H]4CN[C@H](C(=O)N(C)C)C4)c(C(=O)O)c3OB2O)c2ccccc2)C(=O)C1=O (stereo partly drawn) [Example 59, (3R)-7-(((3S,5S)-5-(dimethylcarbamoyl)pyrrolidin-3-yl)oxy)-3-(2-(4-ethyl-2,3-dioxopiperazine-1-carboxamido)-2-phenylacetamido)-2-hydroxy-3,4-dihydro-2H-benzo[e][1,2]oxaborinine-8-carboxylic acid] | 30 to 500 | > 64 | > 64 | > 64 | > 64 | 4 to 8 (≈ 6.02 to 12 µM) | > 64
12 | CCN1CCN(C(=O)NC(C(=O)N[C@H]2Cc3ccc(OCCN)c(C(=O)O)c3OB2O)c2ccccc2)C(=O)C1=O (stereo partly drawn) [Example 60, (3R)-7-(2-aminoethoxy)-3-(2-(4-ethyl-2,3-dioxopiperazine-1-carboxamido)-2-phenylacetamido)-2-hydroxy-3,4-dihydro-2H-benzo[e][1,2]oxaborinine-8-carboxylic acid] | 30 to 500 | > 64 | > 64 | > 64 | > 64 | 16 to 32 (≈ 28.2 to 56.4 µM) | > 64
13 | CCN1CCN(C(=O)NC(C(=O)N[C@H]2Cc3cccc(C(=O)O)c3OB2O)c2cccc(O)c2)C(=O)C1=O (stereo partly drawn) [Example 68, (3R)-3-(2-(4-ethyl-2,3-dioxopiperazine-1-carboxamido)-2-(3-hydroxyphenyl)acetamido)-2-hydroxy-3,4-dihydro-2H-benzo[e][1,2]oxaborinine-8-carboxylic acid] | 30 to 500 | 16 to 32 (≈ 30.5 to 61 µM) | 4 to 8 (≈ 7.63 to 15.3 µM) | 16 to 32 (≈ 30.5 to 61 µM) | 4 to 8 (≈ 7.63 to 15.3 µM) | 0.25 to 0.5 (≈ 0.477 to 0.954 µM) | 16 to 32 (≈ 30.5 to 61 µM)
14 | CCN1CCN(C(=O)NC(C(=O)N[C@H]2Cc3cccc(C(=O)O)c3OB2O)c2ccc(O)cc2O)C(=O)C1=O (stereo partly drawn) [Example 69, (3R)-3-(2-(2,4-dihydroxyphenyl)-2-(4-ethyl-2,3-dioxopiperazine-1-carboxamido)acetamido)-2-hydroxy-3,4-dihydro-2H-benzo[e][1,2]oxaborinine-8-carboxylic acid] | < 30 | > 64 | 4 to 8 (≈ 7.4 to 14.8 µM) | 16 to 32 (≈ 29.6 to 59.2 µM) | 4 to 8 (≈ 7.4 to 14.8 µM) | 0.25 to 0.5 (≈ 0.463 to 0.925 µM) | > 64
15 | CCN1CCN(C(=O)NC(C(=O)N[C@H]2Cc3cccc(C(=O)O)c3OB2O)c2ccc(O)cc2OC)C(=O)C1=O (stereo partly drawn) [Example 70, (3R)-3-(2-(4-ethyl-2,3-dioxopiperazine-1-carboxamido)-2-(4-hydroxy-2-methoxyphenyl)acetamido)-2-hydroxy-3,4-dihydro-2H-benzo[e][1,2]oxaborinine-8-carboxylic acid] | 30 to 500 | > 64 | 16 to 32 (≈ 28.9 to 57.7 µM) | > 64 | 16 to 32 (≈ 28.9 to 57.7 µM) | 1 to 2 (≈ 1.8 to 3.61 µM) | > 64
